Results: patent publication US20080269282A1, “Compounds for Inhibiting Copper-Containing Amine Oxidases and Uses Thereof” (GENMEDICA THERAPEUTICS SL, priority 2004, published 2008)

Target: T1, Human SSAO (Homo sapiens, UniProt Q16853)
T1 construct: Human or mice adipose tissue homogenates, used as a source of SSAO activity; from tissue; host or cells: human adipose tissue homogenate
T1 sequence (Q16853 1-763): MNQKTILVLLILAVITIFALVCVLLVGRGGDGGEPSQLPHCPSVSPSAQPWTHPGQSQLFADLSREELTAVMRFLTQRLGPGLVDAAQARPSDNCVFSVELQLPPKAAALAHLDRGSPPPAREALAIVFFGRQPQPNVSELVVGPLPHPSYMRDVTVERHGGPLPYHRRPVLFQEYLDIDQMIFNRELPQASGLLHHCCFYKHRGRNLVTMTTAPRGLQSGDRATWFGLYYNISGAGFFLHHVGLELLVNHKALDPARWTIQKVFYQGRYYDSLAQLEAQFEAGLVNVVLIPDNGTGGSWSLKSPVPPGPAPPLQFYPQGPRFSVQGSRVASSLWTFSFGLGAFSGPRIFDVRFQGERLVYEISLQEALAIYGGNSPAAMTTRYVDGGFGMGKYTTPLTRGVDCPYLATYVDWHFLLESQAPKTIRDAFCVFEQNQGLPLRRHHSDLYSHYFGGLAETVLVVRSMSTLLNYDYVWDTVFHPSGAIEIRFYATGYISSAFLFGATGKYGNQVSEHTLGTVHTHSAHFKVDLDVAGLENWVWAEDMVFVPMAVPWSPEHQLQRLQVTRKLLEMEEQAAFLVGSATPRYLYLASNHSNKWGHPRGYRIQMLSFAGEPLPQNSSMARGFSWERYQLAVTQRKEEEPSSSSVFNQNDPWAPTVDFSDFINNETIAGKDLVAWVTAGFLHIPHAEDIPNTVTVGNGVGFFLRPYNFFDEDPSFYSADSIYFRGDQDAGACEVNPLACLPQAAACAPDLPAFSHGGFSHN
Assay: SSAO activity determination (Amplex Red/HRP detection of H2O2 from benzylamine oxidation)
Type: biochemical
Settings: human adipose tissue homogenate, benzylamine substrate, 37° C., 20 min preincubation
Experimental: SSAO activity determination: All assays were performed at 37° C. with SSAO from human or mice adipose tissue. The enzyme activity was measured through detection of hydrogen peroxide formed by the oxidation of benzylamine. This method is based on the horseradish peroxidase catalyzed hydrogen peroxide oxidation of 10-acetyl-3,7-dihydroxyphenoxazine (Molecular Probes A-6550), that produces resorufin a highly fluorescent product (excitation, 545 nm; emission, 590 nm) (Zhou and Panchuk-Voloshina, 1997). Human or mice adipose tissue homogenates, used as a source of SSAO activity, were preincubated in 96 well microplates for 20 min at 37° C. in 180 μL of 200 mM Phosphate buffer and H2O2-detecting mixture containing horseradish peroxidase (final concentration 1 U/mL) and Amplex Red reagent (60 μM) and different concentrations of inhibitors when necessary. […] Fluorescence intensity of the samples was measured continuously during 1 h (excitation, 545 nm; emission, 590 nm) and H2O2 concentration was calculated from calibration curves generated by serial dilutions of standard H2O2. […]
The inhibition was measured as % decrease of the signal compared to a control without inhibitor. Blank values in absence of substrates were subtracted from the fluorescence for each experimental condition. The IC50 shown in Table 1 were calculated with GraphPad Prism 4 program.

Cc1[nH]c2ccccc2c1CC(=O)NCC(=O)NO [compound 4]
IC50: 0.033 ± 0.006 µM
